Entries after “also recorded” stand apart in the source; their conditions may differ. Where two headings read alike, the source gives them in different places.
Key:
[1] = system: hippocampal slices; assay: Extracellular Aβ40/Aβ42 by sandwich ELISA in acute hippocampal slices stimulated by single spikes or spike bursts; format: cell-based, rat
[2] = system: CA3-CA1 connections; assay: fEPSP/EPSC recordings in CA3-CA1 connections of hippocampal slices; format: cell-based, rat
[3] = system: CFP-PS1-YFP; format: cell-based, rat
[4] = system: APP/PS1 hippocampal slices; assay: Extracellular Aβ40/Aβ42 by ELISA in APP/PS1 hippocampal slices, single spikes or spike bursts; format: cell-based, mouse
[5] = system: CA3-CA1 connections; assay: fEPSP recordings in CA3-CA1 connections of APP/PS1 hippocampal slices; format: cell-based, mouse
[6] = system: APP; assay: Western blot of APP processing in APP/PS1 hippocampal slices; format: cell-based, mouse; settings: APP/PS1 slices before and after pre-treatment with baclofen
Source text: Immunoblot Analysis. At the end of each stimulation, hippocampal slices were homogenized and prepared for the detection of full-length APP, soluble APP and APP-C terminal fragment (APP-CTF) by western blotting as described previously^18. Full length APP and soluble APP was probed using anti-APP 22C11 monoclonal antibody (Millipore, Temecula, Calif., 1:2000). In APP/PS1 slices, APP-bCTF was detected using 82E1 monoclonal antibody (IBL, Japan, 1:200). Both 22C11 and 82E1 probing were followed by goat anti-mouse HRP conjugated secondary antibody (Jackson ImmunoResearch, West Grove, Pa., 1:5000). APP-aCTF was detected using rabbit anti-APP-CTF antibody (Millipore, Temecula, Calif., 1:10,000) followed by goat anti-rabbit HRP conjugated secondary antibody (Jackson ImmunoResearch, West Grove, Pa., 1:5000). Following detection, blots were stripped with Restore™ Western Blot Stripping Buffer (Pierce, Thermo Scientific, Rockford, Ill.) and then re-probed with mouse anti-actin (SIGMA, Israel, 1:10,000) and HRP-conjugated goat anti-mouse (1:5000) antibodies as a loading control protein. All proteins were visualized by SuperSignal® West Pico Chemiluminescent (Pierce; Thermo Scientific, Rockford, Ill.). Densitometry was performed using the ImageJ Analysis software, and each band was normalized to its actin signal.

[7] = system: CA3-CA1 connections; assay: fEPSP recordings in CA3-CA1 connections of human hippocampal slices; format: cell-based; settings: RS-baclofen 20 μM
Experimental: (§1) Human slices were subjected to 1 hour stimulations by single spikes or spike bursts as described for experiments in rodents herein above (each burst contains 5 APs, inter-spike-interval 10 ms, inter-burst interval 5 s) in ACSF in the presence of 50 μM AP-5 for blocking postsynaptic excitatory NMDA receptors. Following stimulation, [Aβ40]o and [Aβ42]o in ACSF were measured by sandwich ELISA. Extracellularly recorded field EPSPs (fEPSPs) were used to assess short-term synaptic plasticity.

[8] = system: human cortical slices; assay: fEPSP recordings in human cortical slices; format: cell-based; settings: RS-baclofen 20 μM
Experimental: as §1

[9] = system: human cortical slices; assay: Extracellular Aβ40/Aβ42 by ELISA in human cortical slices, single spikes or spike bursts; format: cell-based; settings: RS-baclofen 20 μM
Experimental: as §1

[10] = system: human hippocampal slices; assay: Extracellular Aβ40/Aβ42 by ELISA in human hippocampal slices, single spikes or spike bursts; format: cell-based; settings: RS-baclofen 20 μM
Experimental: as §1

[11] = system: rat hippocampal cultures; format: cell-based
[12] = in vivo; cited from earlier work
[13] = baclofen 1 μM, 3 h, APP/PS1 slices
[14] = 20 mM gabazine, 1 h at 37° C., blocking GABAA receptors

C[C@@H](NC(=O)c1cc(C(=O)N[C@@H](Cc2ccccc2)[C@H](O)CNC2CC2)cc(N(C)S(C)(=O)=O)c1)c1ccccc1 [BACE1 inhibitor IV]
[Aβ40]o in pretreated slices [1]: negligible
[Aβ42]o in pretreated slices [1]: negligible

OC[C@H]1O[C@@H](n2cnc3c(NC4CCCC4)nc(Cl)nc32)[C@H](O)[C@@H]1O [CCPA, 2-Chloro-N-cyclopentyladenosine]
Aβ40/42 during periods of high-frequency burst firing [1]: boosting
Aβ40 pattern dependency (burst/single ratio) [1]: rescued
Aβ42 burst/single ratio [1]: unaltered
[Aβ40]o during single spikes [1]: decreased
[Aβ40]o during spike bursts [1]: increasing
pattern dependency of the Aβ40/42 ratio [1]: restored
basal synaptic transmission [2]: rescued
burst/single ratio of fEPSP charge transfer per spike (QfEPSP) [2]: rescued
short-term facilitation (relative slopes of fEPSPs within the burst) [2]: rescued
slope of linear fit of input-output relationship (stimulation amplitude vs slope of fEPSP) [2]: 0.49±0.03

C[C@H](NC[C@H](O)CP(=O)(O)CC1CCCCC1)c1ccc(Cl)c(Cl)c1 [CGP54626]
[Aβ40]o during single spikes [1]: did not affect
[Aβ40]o during spike bursts [1]: reduced
[Aβ42]o during either single spikes or bursts [1]: did not affect
difference between the Aβ40/42 ratio associated with single and burst patterns [1]: abolished
pattern dependency of Aβ40 [1]: reduced
pattern dependency of the Aβ40/42 ratio [1]: reduced
burst/single ratio of fEPSP charge transfer per spike (QfEPSP) [2]: reduced
short-term synaptic facilitation during the burst [2]: reduced
slope of linear fit of input-output relationship (stimulation amplitude vs slope of fEPSP) [2]: 1.13±0.06

CC(=O)OCOC(=O)CN(CCOCCOCCN(CC(=O)OCOC(C)=O)CC(=O)OCOC(C)=O)CC(=O)OCOC(C)=O [EGTA-AM]
Aβ40/42 pattern dependency [1]: abolished
Aβ40/42 ratio associated with burst patterns [1]: decreased
Aβ40 burst/single ratio [1]: reduced
[Aβ40]o during spike bursts [1]: reduced
[Aβ42]o during either single spikes or bursts [1]: did not affect
burst/single ratio of Aβ42 [1]: did not affect
EPSCs evoked by single spikes reduced by [2]: 20%
burst/single ratio of EPSC charge transfer per spike (QEPSC) [2]: lower
synaptic facilitation of EPSCs reduced by [2]: 70%

NCC(CC(=O)O)c1ccc(Cl)cc1 (stereo not drawn) [baclofen]
Aβ40/42 during periods of high-frequency burst firing [1]: boosting
Aβ40 pattern dependency (burst/single ratio) [1]: rescued
Aβ42 burst/single ratio [1]: unaltered
[Aβ40]o during spike bursts [1]: increasing; also recorded: increased
[Aβ42]o during either single spikes or bursts [1]: did not affect
difference between the Aβ40/42 ratio associated with single and burst patterns [1]: restored
pattern dependency of the Aβ40/42 ratio [1]: restored
pattern dependency of Aβ40 ([1]; 3 h pre-incubation, CGP54626 10 μM, baclofen 1 μM in ↑Ca/Mg-slices): rescued
FYFP/FCFP (FR) on changing stimulation pattern from single spikes to spike bursts [3]: not affected
Aβ40/42 ratio associated with burst patterns [4]: increased
[Aβ40]o during single spikes [4]: did not affect
[Aβ42]o during either single spikes or bursts [4]: did not affect
burst/single ratio of Aβ42 [4]: did not affect
pattern dependency of the Aβ40/42 ratio [4]: rescued
reduction in the Aβ40 burst/single ratio [4]: rescued
[Aβ40]o during bursts [4, 13]: increased
basal synaptic transmission [2]: rescued
burst/single ratio of fEPSP charge transfer per spike (QfEPSP) [2]: rescued
short-term facilitation (relative slopes of fEPSPs within the burst) [2]: rescued
slope of linear fit of input-output relationship (stimulation amplitude vs slope of fEPSP) [2]: 0.77±0.02
short-term synaptic facilitation during the burst ([2]; 3 h pre-incubation, CGP54626 10 μM in ACSF, baclofen 1 μM in ↑Ca/Mg-slices, recordings in normal ACSF): rescued
total synaptic strength ([2]; pretreatment of hippocampal slices with baclofen for 3 h before electrical stimulation): did not alter
burst/single ratio of fEPSP charge transfer per spike (QfEPSP) [5]: reversed
slope of linear fit of input-output relationship (stimulation amplitude vs slope of fEPSP) [5]: 0.95±0.06
reduction in short-term synaptic facilitation by burst in APP/PS1 mice [5, 13]: reversed
burst/single ratio of FL-APP [6]: no significant differences
burst/single ratio of βCTF [6]: no significant differences
short-term synaptic facilitation during the burst [7]: increased
short-term synaptic depression [8]: reduced
Aβ42 pattern dependency [9]: no effect
burst pattern sensitivity of Aβ40 [9]: increased
pattern dependency of the Aβ40/42 [9]: induced
Aβ40/42 ratio during burst pattern of stimulation [10]: increased
Aβ42 pattern dependency [10]: without affecting
[Aβ42]o during either single- or burst stimulation pattern [10]: uniformly inhibited
burst pattern sensitivity of Aβ40 [10]: increased
pattern dependency of the Aβ40/42 [10]: induced
[Aβ40]o ([10]; stronger during single spikes): inhibited

[Cd] [cadmium]
Aβ40/42 pattern dependency [1]: abolished
Aβ40/42 ratio [1]: decreased
Aβ40 burst/single ratio [1]: reduced
[Aβ40]o reduced by, during single spikes [1]: 67%
[Aβ40]o reduced by, during spike bursts [1]: 77%
[Aβ42]o at either stimulation pattern [1]: did not alter
burst/single ratio of Aβ42 [1]: did not affect
synaptic transmission [2]: completely blocked

COc1ccc(-c2ccc(=N)n(CCCC(=O)O)n2)cc1 [gabazine]
[Aβ40]o increased by [11, 14]: 93.5%
[Aβ42]o increased by [11, 14]: 103%

NC1=N[C@H](O)[C@H]2[C@H]3O[C@]4(O)O[C@@H]([C@@H](O)[C@@]2(N1)[C@@H]4O)[C@]3(O)CO [tetrodotoxin]
CFP-PS1-YFP FRET efficiency [3]: did not change
FYFP/FCFP (FR) [3]: not affected
[Aβ40]o reduced by [11]: 34%
[Aβ42]o reduced by [11]: 31%
elimination rate of total Aβ [12]: lack of TTX effect

ω-conotoxin GVIA [ω-CgTx]
Aβ40/42 during periods of high-frequency burst firing [1]: boosting
Aβ40 pattern dependency (burst/single ratio) [1]: rescued
Aβ42 burst/single ratio [1]: unaltered
[Aβ40]o during single spikes [1]: decreased
[Aβ40]o during spike bursts [1]: increasing
pattern dependency of the Aβ40/42 ratio [1]: restored
basal synaptic transmission [2]: rescued
burst/single ratio of fEPSP charge transfer per spike (QfEPSP) [2]: rescued
short-term facilitation (relative slopes of fEPSPs within the burst) [2]: rescued
slope of linear fit of input-output relationship (stimulation amplitude vs slope of fEPSP) [2]: 0.82±0.03

From patent US9192670B2, “Regulation of amyloid beta molecular composition for the treatment of alzheimer's disease” (Ramot at Tel-Aviv University Ltd., priority 2011, dated 2015)
